Reference: ChEMBL document CHEMBL1201862, “PubChem BioAssay data set” (2004)
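48-hour exposure; five concentrations; linearly interpolated endpoints. Here, GI50 denotes the concentration required for 50% inhibition of growth.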 Activity calls are given as the source filed them. Cut-off read from the data, not from the text of the source: active = GI50 up to about 1.1 µM and inactive = higher.

How the values were obtained:
Experiment in all cases: NCI anticancer screen, dose series, 48 h
UACC-257 = test system: UACC-257
K562 = test system: K562
OVCAR-4 = test system: OVCAR-4
UO-31 = test system: UO-31
CCRF-CEM = test system: CCRF-CEM
DU-145 = test system: DU-145
OVCAR-3 = test system: OVCAR-3
OVCAR-8 = test system: OVCAR-8
SF-268 = test system: SF-268
T47D = test system: T47D
ACHN = test system: ACHN
HOP-92 = test system: HOP-92
HOP-62 = test system: HOP-62
LOX IMVI = test system: LOX IMVI
TK-10 = test system: TK-10
SNB-19 = test system: SNB-19
NCI-H522 = test system: NCI-H522
HCT-116 = test system: HCT-116
RPMI-8226 = test system: RPMI-8226
CAKI-1 = test system: CAKI-1
Malme-3M = test system: Malme-3M
MCF7 = test system: MCF7
SNB-75 = test system: SNB-75
EKVX = test system: EKVX
NCI-H226 = test system: NCI-H226
SF-539 = test system: SF-539
786-0 = test system: 786-0
SR = test system: SR
HT-29 = test system: HT-29
A498 = test system: A498
SK-OV-3 = test system: SK-OV-3
IGROV-1 = test system: IGROV-1
NCI-H23 = test system: NCI-H23
MDA-MB-435 = test system: MDA-MB-435
M14 = test system: M14
NCI/ADR-RES = test system: NCI/ADR-RES
BT-549 = test system: BT-549
SK-MEL-2 = test system: SK-MEL-2
Hs-578T = test system: Hs-578T
COLO 205 = test system: COLO 205
SN12C = test system: SN12C
UACC-62 = test system: UACC-62
PC-3 = test system: PC-3
A549 = test system: A549
NCI-H460 = test system: NCI-H460
SF-295 = test system: SF-295
MDA-MB-231 = test system: MDA-MB-231
HCT-15 = test system: HCT-15
RXF 393 = test system: RXF 393
KM12 = test system: KM12
SW-620 = test system: SW-620
SK-MEL-28 = test system: SK-MEL-28
MDA-N = test system: MDA-N
U-251 = test system: U-251
OVCAR-5 = test system: OVCAR-5
SK-MEL-5 = test system: SK-MEL-5
HL-60 = test system: HL-60
HCC 2998 = test system: HCC 2998
MOLT-4 = test system: MOLT-4

For `Cn1c(=O)c2nc(CCCCc3nc4c(=O)n(C)c(=S)n(C)c4[nH]3)[nH]c2n(C)c1=S`, the GI50 (UACC-257) was > 100 µM (inactive), the GI50 (K562) was > 100 µM (inactive) and the GI50 (OVCAR-4) was > 100 µM (inactive). The GI50 (UO-31) was > 100 µM (inactive), the GI50 (CCRF-CEM) was > 100 µM (inactive) and the GI50 (DU-145) was > 100 µM (inactive). The GI50 (OVCAR-3) was > 100 µM (inactive), the GI50 (OVCAR-8) was > 100 µM (inactive) and the GI50 (SF-268) was > 100 µM (inactive). The GI50 (T47D) was > 100 µM (inactive), the GI50 (ACHN) was > 100 µM (inactive) and the GI50 (HOP-92) was 45.7 µM (inactive). The GI50 (HOP-62) was 38.9 µM (inactive), the GI50 (LOX IMVI) was > 100 µM (inactive) and the GI50 (TK-10) was > 100 µM (inactive). For the same molecule, the GI50 (SNB-19) was 76.6 µM (inactive), the GI50 (NCI-H522) was > 100 µM (inactive) and the GI50 (HCT-116) was > 100 µM (inactive). The GI50 (RPMI-8226) was > 100 µM (inactive), the GI50 (CAKI-1) was > 100 µM (inactive) and the GI50 (Malme-3M) was > 100 µM (inactive). For the same molecule, the GI50 (MCF7) was > 100 µM (inactive), the GI50 (SNB-75) was 23.4 µM (inactive) and the GI50 (EKVX) was 23.4 µM (inactive). The GI50 (NCI-H226) was > 100 µM (inactive), the GI50 (SF-539) was 40.8 µM (inactive) and the GI50 (786-0) was > 100 µM (inactive). The GI50 (SR) was > 100 µM (inactive), the GI50 (HT-29) was > 100 µM (inactive) and the GI50 (A498) was > 100 µM (inactive). The GI50 (SK-OV-3) was 45.2 µM (inactive), the GI50 (IGROV-1) was > 100 µM (inactive) and the GI50 (NCI-H23) was > 100 µM (inactive). For the same molecule, the GI50 (MDA-MB-435) was > 100 µM (inactive), the GI50 (M14) was > 100 µM (inactive) and the GI50 (NCI/ADR-RES) was > 100 µM (inactive). For the same molecule, the GI50 (BT-549) was > 100 µM (inactive), the GI50 (SK-MEL-2) was > 100 µM (inactive) and the GI50 (Hs-578T) was > 100 µM (inactive). The GI50 (COLO 205) was > 100 µM (inactive), the GI50 (SN12C) was > 100 µM (inactive) and the GI50 (UACC-62) was > 100 µM (inactive). For the same molecule, the GI50 (PC-3) was > 100 µM (inactive), the GI50 (A549) was > 100 µM (inactive) and the GI50 (NCI-H460) was > 100 µM (inactive). For the same molecule, the GI50 (SF-295) was 88.1 µM (inactive), the GI50 (MDA-MB-231) was > 100 µM (inactive) and the GI50 (HCT-15) was > 100 µM. The GI50 (RXF 393) was > 100 µM (inactive), the GI50 (KM12) was > 100 µM (inactive) and the GI50 (SW-620) was > 100 µM (inactive). For the same molecule, the GI50 (SK-MEL-28) was > 100 µM (inactive), the GI50 (MDA-N) was > 100 µM (inactive) and the GI50 (U-251) was 57.4 µM (inactive). The GI50 (OVCAR-5) was > 100 µM (inactive) and the GI50 (SK-MEL-5) was > 100 µM (inactive).
In the case of `COC(=O)CN1Cc2cc(C)cc(c2O)CN(CC(=O)OC)Cc2cc(C)cc(c2O)CN(CC(=O)OC)Cc2cc(C)cc(c2O)C1`, the GI50 (UACC-257) is reported as > 100 µM (inactive), the GI50 (K562) is reported as > 100 µM (inactive) and the GI50 (OVCAR-4) is reported as > 100 µM (inactive). The GI50 (UO-31) was > 44 µM (inactive), the GI50 (CCRF-CEM) was 6.76 µM (inactive) and the GI50 (DU-145) was > 41 µM (inactive). For the same molecule, the GI50 (OVCAR-3) was > 58.2 µM (inactive), the GI50 (OVCAR-8) was > 100 µM (inactive) and the GI50 (SF-268) was > 100 µM (inactive). The GI50 (T47D) was > 20.1 µM (inactive), the GI50 (ACHN) was > 47.1 µM (inactive) and the GI50 (HOP-92) was > 81.8 µM (inactive). The GI50 (HOP-62) was > 40.3 µM (inactive), the GI50 (LOX IMVI) was > 65.8 µM (inactive) and the GI50 (TK-10) was > 79.8 µM (inactive). For the same molecule, the GI50 (SNB-19) was > 100 µM (inactive), the GI50 (NCI-H522) was > 100 µM (inactive) and the GI50 (HCT-116) was 12.6 µM (inactive). The GI50 (RPMI-8226) was > 100 µM (inactive), the GI50 (CAKI-1) was > 100 µM (inactive) and the GI50 (Malme-3M) was > 100 µM (inactive). The GI50 (HL-60) was 15.4 µM (inactive), the GI50 (MCF7) was > 42 µM (inactive) and the GI50 (SNB-75) was > 33.4 µM (inactive). For the same molecule, the GI50 (EKVX) was > 100 µM (inactive), the GI50 (NCI-H226) was > 37.4 µM (inactive) and the GI50 (SF-539) was > 80.2 µM (inactive). For the same molecule, the GI50 (786-0) was > 100 µM (inactive), the GI50 (HT-29) was > 47.9 µM (inactive) and the GI50 (A498) was > 51.8 µM (inactive). For the same molecule, the GI50 (SK-OV-3) was > 45.5 µM (inactive), the GI50 (IGROV-1) was > 100 µM (inactive) and the GI50 (NCI-H23) was > 100 µM (inactive). The GI50 (MDA-MB-435) was > 100 µM (inactive), the GI50 (M14) was > 37.8 µM (inactive) and the GI50 (NCI/ADR-RES) was > 100 µM (inactive). The GI50 (BT-549) was > 100 µM (inactive), the GI50 (SK-MEL-2) was > 39.8 µM (inactive) and the GI50 (Hs-578T) was > 100 µM (inactive). The GI50 (COLO 205) was > 54.3 µM (inactive), the GI50 (SN12C) was > 100 µM (inactive) and the GI50 (HCC 2998) was 2.03 µM (inactive). The GI50 (UACC-62) was > 100 µM (inactive), the GI50 (PC-3) was > 32.9 µM (inactive) and the GI50 (A549) was > 100 µM (inactive). The GI50 (NCI-H460) was 0.272 µM (active), the GI50 (SF-295) was > 61.8 µM (inactive) and the GI50 (MOLT-4) was > 100 µM (inactive). For the same molecule, the GI50 (MDA-MB-231) was > 36.8 µM (inactive), the GI50 (HCT-15) was > 66.4 µM and the GI50 (RXF 393) was > 33.7 µM (inactive). For the same molecule, the GI50 (KM12) was > 56.2 µM (inactive), the GI50 (SW-620) was > 87.3 µM (inactive) and the GI50 (SK-MEL-28) was 99.8 µM (inactive). For the same molecule, the GI50 (MDA-N) was > 87.9 µM (inactive), the GI50 (U-251) was > 45.8 µM (inactive) and the GI50 (OVCAR-5) was 26.4 µM (inactive). The GI50 (SK-MEL-5) was > 57.5 µM (inactive).
